Assay results as given in ChEMBL document CHEMBL1201862, “PubChem BioAssay data set” (2004).
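Compound exposure: 48 hours, 5 concentrations, 96-well plates. GI50 is the concentration that inhibits growth by half.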 Activity calls are given as the source filed them. Cut-off read from the data, not from the text of the source: active = GI50 up to about 1.1 µM and inactive = higher.

What was measured:
Test in all cases: inhibition of tumour cell growth, NCI panel, 48 h
SF-268 = system: SF-268
IGROV-1 = system: IGROV-1
RPMI-8226 = system: RPMI-8226
SNB-19 = system: SNB-19
SK-MEL-2 = system: SK-MEL-2
LOX IMVI = system: LOX IMVI
MCF7 = system: MCF7
T47D = system: T47D
UACC-62 = system: UACC-62
SF-539 = system: SF-539
U-251 = system: U-251
Hs-578T = system: Hs-578T
KM12 = system: KM12
NCI-H226 = system: NCI-H226
HCC 2998 = system: HCC 2998
HOP-62 = system: HOP-62
M14 = system: M14
DLD-1 = system: DLD-1
LXFL 529 = system: LXFL 529
A498 = system: A498

Measured: GI50

O=c1cc(-c2ccccc2)oc2ccc(Cl)cc12 [6-CHLOROFLAVONE]
inactive: SF-268 31.8 µM | IGROV-1 > 82 µM | RPMI-8226 > 73.5 µM | SNB-19 29.6 µM | SK-MEL-2 > 84.7 µM | LOX IMVI > 56.4 µM | MCF7 20.7 µM | T47D 19.6 µM | UACC-62 > 67.1 µM | SF-539 37.7 µM | U-251 37.7 µM | Hs-578T > 44.8 µM | KM12 > 64.7 µM | NCI-H226 > 84.7 µM | HCC 2998 > 56.4 µM | HOP-62 44.7 µM | M14 65.5 µM | DLD-1 > 100 µM | LXFL 529 > 100 µM | A498 > 68.5 µM

O=c1oc2ccccc2c(O)c1C(C/C(CCN1CCCC1)=N\Nc1ccccc1)c1ccccc1 (stereo not given)
inactive: SF-268 > 100 µM | IGROV-1 > 100 µM | RPMI-8226 27.1 µM | SNB-19 69.5 µM | SK-MEL-2 51.3 µM | LOX IMVI 55.6 µM | UACC-62 76 µM | SF-539 88.9 µM | U-251 78.2 µM | KM12 60.5 µM | NCI-H226 71.9 µM | HCC 2998 23.6 µM | HOP-62 94.2 µM | M14 93.1 µM | DLD-1 99.5 µM | LXFL 529 84.5 µM | A498 > 100 µM

CCN1CCC(O)(c2ccc(C)cc2)C(C(=O)c2ccc(C)cc2)C1 (stereo not given)
inactive: SF-268 > 53 µM | IGROV-1 > 42.9 µM | RPMI-8226 12.9 µM | SNB-19 > 80.7 µM | SK-MEL-2 > 100 µM | LOX IMVI 26.2 µM | UACC-62 > 42.6 µM | SF-539 > 43.5 µM | U-251 > 52.5 µM | KM12 33.1 µM | NCI-H226 > 100 µM | HCC 2998 52.4 µM | HOP-62 > 100 µM | M14 36.7 µM | DLD-1 18.1 µM | LXFL 529 17.4 µM | A498 > 59.2 µM

O=C(NCc1cccnc1)C1COc2cc(-c3cc(=O)c4ccccc4o3)ccc2O1 (stereo not given)
inactive: SF-268 3.89 µM | IGROV-1 > 66.5 µM | RPMI-8226 > 100 µM | SNB-19 19.8 µM | SK-MEL-2 3.4 µM | LOX IMVI 3.38 µM | UACC-62 30.4 µM | SF-539 3.04 µM | U-251 5.93 µM | KM12 > 36.1 µM | NCI-H226 3.62 µM | HCC 2998 > 100 µM | HOP-62 10.1 µM | M14 5.27 µM | DLD-1 > 100 µM | LXFL 529 4.95 µM | A498 > 61.4 µM

OCC(O)CNc1ccnc2cc(Cl)ccc12 (stereo not given)
inactive: SF-268 > 100 µM | IGROV-1 > 100 µM | RPMI-8226 > 100 µM | SNB-19 > 100 µM | SK-MEL-2 > 100 µM | LOX IMVI > 100 µM | UACC-62 > 100 µM | SF-539 > 100 µM | U-251 > 100 µM | KM12 > 100 µM | NCI-H226 > 100 µM | HCC 2998 > 100 µM | HOP-62 > 100 µM | M14 > 100 µM | DLD-1 > 100 µM | LXFL 529 > 100 µM | A498 > 100 µM

COc1cccc(/C=C2\N=C(Cl)OC2=O)c1O
inactive: SF-268 > 80 µM | IGROV-1 > 100 µM | RPMI-8226 > 73.5 µM | SNB-19 > 100 µM | SK-MEL-2 > 100 µM | LOX IMVI > 100 µM | UACC-62 > 100 µM | SF-539 > 100 µM | U-251 > 85.9 µM | KM12 > 100 µM | NCI-H226 > 100 µM | HCC 2998 > 100 µM | HOP-62 > 100 µM | M14 > 100 µM | DLD-1 > 76.7 µM | LXFL 529 > 100 µM | A498 > 100 µM
